Measurements taken from patent US20080280868A1, “Pyridine Derivatives and Their Use as Cb2 Receptor Modulators” (priority 2004, published 2008).
Counter-ions that a name gives are not always drawn. Like-named read-outs stand apart in the source and are kept apart here.

Biological target: T1, human cannabinoid CB2 receptor (Homo sapiens, UniProt P34972)
T1 construct: expressed in transfected cells; host or cells: Saccharomyces cerevisiae strain MMY23 (cassette integrated at the ura3 locus, GPD promoter)
Test: Cannabinoid CB2 receptor agonist activity in yeast cells (FDGlu fluorescence)
Format: cell-based
Conditions: for Emax: read-out: efficacy value (Emax) at the cloned human cannabinoid CB2 receptor
Protocol: The cannabinoid CB2 receptor agonist activity of the compounds of formula (I) was determined in accordance with the following experimental method.
Yeast (Saccharomyces cerevisiae) cells expressing the human cannabinoid CB2 receptor were generated by integration of an expression cassette into the ura3 chromosomal locus of yeast strain MMY23. This cassette consisted of DNA sequence encoding the human CB2 receptor flanked by the yeast GPD promoter to the 5′ end of CB2 and a yeast transcriptional terminator sequence to the 3′ end of CB2. MMY23 expresses a yeast/mammalian chimeric G-protein alpha subunit in which the C-terminal 5 amino acids of Gpal are replaced with the C-terminal 5 amino acids of human Gαi3 (as described in Brown et al. (2000), Yeast 16:11-22).
Agonists were prepared as 10 mM stocks in DMSO. […] Agonist solutions in DMSO (1% final assay volume) were transferred into black, clear bottom, microtitre plates from NUNC (96- or 384-well). Cells were suspended at a density of 0.2 OD600/ml in SC media lacking histidine, uracil, tryptophan, adenine and leucine and supplemented with 10 mM 3-aminotriazole, 0.1M sodium phosphate pH 7.0, and […] fluorescein di-β-D-glucopyranoside (FDGlu). […] After incubation at 30° C. for 24 hours, fluorescence resulting from degradation of FDGlu to fluorescein due to exoglucanase, an endogenous yeast enzyme produced during agonist-stimulated cell growth, was determined using a Spectrofluor microtitre plate reader (Tecan; excitation wavelength: 485 nm; emission wavelength: 535 nm). Fluorescence was plotted against compound concentration and iteratively curve fitted using a four parameter fit to generate a concentration effect value. Efficacy (Emax) was calculated from the equation
Equieffective molar ratio (EMR) values were calculated from the equation

[1] = Emax relative to HU210, yeast expressing human CB2
[2] = yeast (Saccharomyces cerevisiae) expressing human CB2, agonist, 30° C. for 24 hours, read-out: EC50 at the cloned human cannabinoid CB2 receptor

T1 sequence (P34972 whole entry): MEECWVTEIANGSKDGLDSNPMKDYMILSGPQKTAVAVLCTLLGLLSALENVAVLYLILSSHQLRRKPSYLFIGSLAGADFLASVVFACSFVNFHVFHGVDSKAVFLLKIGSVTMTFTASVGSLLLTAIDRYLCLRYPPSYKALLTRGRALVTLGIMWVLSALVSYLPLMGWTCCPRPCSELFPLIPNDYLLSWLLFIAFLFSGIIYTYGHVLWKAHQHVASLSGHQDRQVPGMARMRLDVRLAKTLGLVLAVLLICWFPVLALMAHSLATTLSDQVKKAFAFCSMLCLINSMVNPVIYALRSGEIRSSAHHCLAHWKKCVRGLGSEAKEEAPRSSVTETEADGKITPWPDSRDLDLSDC

| Emax [1] | EC50 [2] | SMILES | EC50 | Emax |
| --- | --- | --- | --- | --- |
| – | – | CC(C)c1cc(Nc2ccc(Cl)cc2Cl)ncc1CNCC1CCC1 [Example 16, {5-[(Cyclobutylmethyl-amino)-methyl]-4-isopropyl-pyridin-2-yl}-(2,4-dichloro-phenyl)-amine,compound with formic acid (1:1)] | < 300 nM | > 50% |
| > 50% | 300 to 1000 nM | CC(C)c1cc(Nc2ccc(Cl)cc2F)ncc1CNCC1CCC1 [Example 25, (4-Chloro-2-fluoro-phenyl)-{5-[(cyclobutylmethyl-amino)-methyl]-4-isopropyl-pyridin-2-yl}-amine,compound with formic acid (1:1.67)] | – | – |
| > 50% | < 300 nM | Clc1cccc(Nc2cc(C3CC3)c(CNC3CCC3)cn2)c1 [Example 1, (3-Chlorophenyl)-5-(cyclobutylaminomethyW cyclopropyl-pyridin-2-yl)-amine acetate] | – | – |
| – | – | Cc1ccc(Nc2cc(C(C)C)c(CNCC3CC3)cn2)cc1Cl [Example 33, (3-Chloro-4-methyl-phenyl)-{5-[(cyclopropylmethyl-amino)-methyl]-4-isopropyl-pyridin-2-yl}-amine, compound with formic acid(1:1)] | 300 to 1000 nM | > 50% |
| – | – | Clc1cccc(Nc2cc(C3CC3)c(CN3CCOCC3)cn2)c1 [Example 4, (3-Chlorophenyl)-(4-cyclopropyl-5-morpholin-4-ylmethyl-pyridin-2-yl)-aminedihydrochloride] | < 300 nM | > 50% |
| – | – | O=S1(=O)CCC(NCc2cnc(Nc3cccc(Cl)c3)cc2C2CC2)CC1 [Example 63, (3-Chloro-phenyl)-{4-cyclopropyl-5-[(1,1-dioxo-hexahydro-1l^6-thiopyran-4-ylamino)-methyl]-pyridin-2-yl}-amine di-hydrochloride] | < 300 nM | > 50% |
| – | – | CC(C)c1cc(Nc2ccc(F)cc2Cl)ncc1CNCC1CCC1 [Example 24, (2-Chloro-4-fluoro-phenyl)-{5-[(cyclobutylmethyl-amino)-methyl]-4-isopropyl-pyridin-2-yl}-amine,compound with formic acid (1:1.75)] | 300 to 1000 nM | > 50% |
| – | – | CC(C)c1cc(Nc2cccc(Cl)c2)ncc1CNCC1CCCC1 [Example 50, (3-Chloro-phenyl)-{5-[(cyclopentylmethyl-amino)-methyl]-4-isopropyl-pyridin-2-yl}-amine, compound with formic acid(1:1)] | < 300 nM | > 50% |
| – | – | Cc1cccc(Nc2cc(C(C)C)c(CNCC3CCC3)cn2)c1 [Example 12, {5-[(Cyclobutylmethyl-amino)methyl]-4-isopropyl-pyridin-2-yl}-m-tolyl-amine] | 300 to 1000 nM | > 50% |
| – | – | Clc1cccc(Nc2cc(C3CC3)c(CNCC3CCCC3)cn2)c1 [Example 62, (3-Chloro-phenyl)-{5-[(cyclopentylmethyl-amino)-methyl]-4-cyclopropyl-pyridin-2-yl}-amine di-Hydrochloride] | < 300 nM | > 50% |
| > 50% | 300 to 1000 nM | Cc1c(Cl)cccc1Nc1cc(C2CC2)c(CNCC2CCC2)cn1 [Example 29, (3-Chloro-2-methyl-phenyl)-{5-[(cyclobutylmethyl-amino)-methyl]-4-cyclopropyl-pyridin-2-yl}-amine,compound with formic acid (1:1.57)] | – | – |
| – | – | CC(C)CNCc1cnc(Nc2ccc(Cl)c(Cl)c2)cc1C(C)C [Example 47, (3,4-Dichloro-phenyl)-[5-(isobutylamino-methyl)-4-isopropyl-pyridin-2-yl]-amine, compound withformic acid (1:1)] | < 300 nM | > 50% |
| – | – | CC(C)c1cc(Nc2cc(Cl)ccc2Cl)ncc1CNCC1CCC1 [Example 20, {5-[(Cyclobutylmethyl-amino)-methyl]-4-isopropyl-pyridin-2-yl}-(2,5-dichloro-phenyl)-amine,compound with formic acid (1:1)] | < 300 nM | > 50% |
| > 50% | < 300 nM | Fc1ccc(Nc2cc(C3CC3)c(CNCC3CCCC3)cn2)cc1Cl [Example 44, (3-Chloro-4-fluoro-phenyl)-{5-[(cyclopentylmethyl-amino)-methyl]-4-cyclopropyl-pyridin-2-yl}-amine, compound with formicacid (1:1.4)] | – | – |
| – | – | CC(C)c1cc(Nc2ccc(Cl)c(Cl)c2)ncc1CNCC1CCC1 [Example 17, {5-[(Cyclobutylmethyl-amino)-methyl]-4-isopropyl-pyridin-2-yl}-(3,4-dichloro-phenyl)-amine,compound with formic acid (1:1.2)] | < 300 nM | > 50% |
| – | – | Fc1ccc(CNCc2cnc(Nc3cccc(Cl)c3)cc2C2CC2)cc1 [Example 52, (3-Chloro-phenyl)-{4-cyclopropyl-5-[(4-fluorobenzylamino)methyl]-pyridin-2-yl}-amine dihydrochloride] | < 300 nM | > 50% |
| – | < 300 nM | CC(C)c1cc(Nc2cccc(Cl)c2)ncc1CN1CCC1 [Example 59, (5-Azetidin-1-ylmethyl-4-isopropyl-pyridin-2-yl)-(3-chloro-phenyl)-amine.dihydrochloride] | – | – |
| > 50% | < 300 nM | CC(C)c1cc(N(C)c2cccc(Br)c2)ncc1CNCC1CCOCC1 [Example 49, (3-Bromo-phenyl)-(4-isopropyl-5-{[(tetrahydro-pyran-4-ylmethyl)-amino]-methyl}-pyridin-2-yl)-methyl-amine, compound withformic acid (1:1)] | – | – |
| > 50% | < 300 nM | CC(C)CNCc1cnc(Nc2cccc(C(F)(F)F)c2)cc1C(C)C [Example 51, [5-(Isobutylamino-methyl)-4-isopropyl-pyridin-2-yl]-(3-trifluoromethyl-phenyl)-amine,compound with formic acid (1:1,25)] | – | – |
| – | – | CC(C)c1cc(Nc2cccc(Cl)c2)ncc1CNCC1CC1 [Example 22, (3-Chloro-phenyl)-{5-[(cyclopropylmethyl-amino)-methyl]-4-isopropyl-pyridin-2-yl}-amine, compound with formic acid(1:1.25)] | < 300 nM | > 50% |
| – | – | CC(C)c1cc(Nc2ccc(Cl)cc2Cl)ncc1CN1CCSCC1 [Example 61, (2,4-Dichloro-phenyl)-(4-isopropyl-5thiomorpholin-4-ylmethyl-pyridin-2-yl)-amine dihydrochloride] | < 300 nM | > 50% |
| – | – | CC(C)c1cc(Nc2ccc(F)c(F)c2)ncc1CNCC1CC1 [Example 37, {5-[(Cyclopropylmethyl-amino)-methyl]-4-isopropyl-pyridin-2-yl}-(3,4-difluoro-phenyl)-amine,compound with formic acid (1:1.15)] | 300 to 1000 nM | > 50% |
| > 50% | < 300 nM | Clc1cccc(Nc2cc(C3CC3)c(CNC3CC3)cn2)c1 [Example 2, (3-Chlorophenyl)-(4-cyclopropyl-5-cyclopropylaminomethyl-pyridin-2-yl)-amineacetate] | – | – |
| – | – | CC(C)c1cc(Nc2cccc(C(F)(F)F)c2F)ncc1C(C)NCC1CCC1 (stereo not drawn) [Example 56, {[1-Cyclobutylmethyl-amino)ethyl]-4-isopropyl-pyridin-2-yl}-(2-fluoro-3-trifluoromethyl-phenyl)-amine dihydrochloride] | < 300 nM | > 50% |
| – | – | CC(C)c1cc(Nc2cccc(Cl)c2)ncc1CN1CCCC1 [Example 58, (3-Chloro-phenyl)-(4-isopropyl-5-pyrrolidin-1-ylmethyl-pyridin-2-yl)-amine. dihydrochloride] | < 300 nM | > 50% |
| > 50% | < 300 nM | CC(C)c1cc(Nc2cc(F)cc(F)c2)ncc1CNCC1CCC1 [Example 21, {5-[(Cyclobutylmethyl-amino)-methyl]-4-isopropyl-pyridin-2-yl}-(3,5-difluoro-phenyl)-amine,compound with formic acid (1:1.3)] | – | – |
| – | – | CC(C)c1cc(Nc2cccc(Cl)c2)ncc1CNC(C)(C)C [Example 65, [5-(tert-Butylamino-methyl)isopropyl-pyridin-2-yl]-(3-chloro-phenyl)amine dihydrochloride] | 300 to 1000 nM | > 50% |

| SMILES | Emax [1] | EC50 [2] | EC50 | Emax |
| --- | --- | --- | --- | --- |
| CC(C)c1cc(Nc2ccc(OC(F)(F)F)cc2Br)ncc1CNCC1CCC1 [Example 26, (2-Bromo-4-trifluoromethoxy-phenyl)-{5-[(cyclobutylmethyl-amino)-methyl]-4-isopropyl-pyridin-2-yl}-amine, compound with formicacid (1:1)] | – | 300 to 1000 nM | – | > 50% |
| CC(C)c1cc(Nc2ccc(F)c(Cl)c2)ncc1CNCC1CC1 [Example 34, (3-Chloro-4-fluoro-phenyl)-{5-[(cyclopropylmethyl-amino)-methyl]-4-isopropyl-pyridin-2-yl}-amine, compound with formic acid(1:1)] | – | 300 to 1000 nM | – | > 50% |
